One may read the IC50 as the concentration at which inhibition is half-maximal. Lower therefore signals inhibition by little substance.

For this assay, the target named is T1, human SGLT2 (Homo sapiens, UniProt P31639, I433V).
T1 construct: expressed in transfected cells; host or cells: COS-7 cells (RIKEN CELL BANK RCB0539), transient, electroporation
T1 sequence (P31639 1-672 I433V): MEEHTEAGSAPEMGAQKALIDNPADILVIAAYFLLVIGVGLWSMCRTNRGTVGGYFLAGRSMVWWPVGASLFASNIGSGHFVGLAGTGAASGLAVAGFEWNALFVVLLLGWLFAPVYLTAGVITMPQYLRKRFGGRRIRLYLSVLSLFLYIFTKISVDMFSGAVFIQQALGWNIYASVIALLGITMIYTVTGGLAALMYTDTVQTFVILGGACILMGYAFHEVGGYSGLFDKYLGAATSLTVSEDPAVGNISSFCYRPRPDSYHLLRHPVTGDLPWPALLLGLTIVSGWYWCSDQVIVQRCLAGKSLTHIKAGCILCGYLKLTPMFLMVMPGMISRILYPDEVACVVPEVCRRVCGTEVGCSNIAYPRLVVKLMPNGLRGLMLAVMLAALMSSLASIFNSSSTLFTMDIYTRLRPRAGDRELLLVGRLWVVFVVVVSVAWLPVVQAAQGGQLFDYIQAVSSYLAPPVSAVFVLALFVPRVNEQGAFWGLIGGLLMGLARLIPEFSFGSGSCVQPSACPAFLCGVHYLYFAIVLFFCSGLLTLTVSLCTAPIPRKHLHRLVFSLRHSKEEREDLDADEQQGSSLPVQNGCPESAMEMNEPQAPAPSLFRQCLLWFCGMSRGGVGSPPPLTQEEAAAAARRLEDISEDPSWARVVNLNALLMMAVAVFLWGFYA
Briefly: Assay for inhibitory effect on human SGLT2 activity (methyl-α-D-glucopyranoside uptake in COS-7 cells transiently expressing human SGLT2). In kind it is cell-based. The conditions noted are these: inhibition of methyl-α-D-glucopyranoside uptake, COS-7 cells expressing human SGLT2, 37° C., 2 hours. On the procedure:
Assay for Inhibitory Effect on Human SGLT2 Activity
1) Construction of the Plasmid Vector Expressing Human SGLT2
Preparation of the cDNA library for PCR amplification was performed by reverse transcription of a total RNA deprived from human kidney (Ori gene) with oligo dT as the primer, using SUPERSCRIPT Preamplification System (Gibco-BRL: LIFE TECHNOLOGIES). The DNA fragment coding for human SGLT2 was amplified by the PCR reaction, in which the human kidney cDNA library described above was used as the template and the following oligo nucleotides 0702F and 0712R, presented as sequence number 1 and 2 respectively, were used as the primers. The amplified DNA fragment was ligated into pCR-Blunt (Invitrogen), a vector for cloning, according to standard method of the kit. The Escherichia coli HB101 was transformed according to usual method and then selection of the transformants was performed on the LB agar medium containing 50 μg/mL of kanamycin. After plasmid DNA was extracted and purified from the one of the transformants, amplifying of the DNA fragment coding for human SGLT2 was performed by the PCR reaction, in which the following oligo nucleotides 0714F and 0715R, presented as sequence number 3 and 4 respectively, were used as the primers. The amplified DNA fragment was digested with restriction enzymes, Xho I and Hind III, and then purified with Wizard Purification System (Promega). This purified DNA fragment was inserted at into the corresponding restriction sites of pcDNA3.1 (−) Myc/His—B (Invitrogen), a vector for expressing of fusion protein. The Escherichia coli HB101 was transformed according to usual method and then selection of the transformant was performed on the LB agar medium containing 100 μg/mL of ampicillin. After plasmid DNA was extracted and purified from this transformant, the base sequence of the DNA fragment inserted at the multi-cloning sites of the vector pcDNA3.1 (−) Myc/His—B was analyzed. […] Sequentially, a clone in which valine is substituted for isoleucine-433 was obtained. This plasmid vector expressing human SGLT2 in which the peptide presented as sequence number 5 is fused to the carboxyl terminal alanine residue was designated KL29.
2) Preparation of the Cells Expressing Transiently Human SGLT2
KL29, the plasmid coding human SGLT2, was transfected into COS-7 cells (RIKEN CELL BANK RCB0539) by electroporation. Electroporation was performed with GENE PULSER II (Bio-Rad Laboratories) under the condition: 0.290 kV, 975 μF, 2×10^6 cells of COS-7 cell and 20 μg of KL29 in 500 μL of OPTI-MEM I medium (Gibco-BRL: LIFE TECHNOLOGIES) in the 0.4 cm type cuvette. After the gene transfer, the cells were harvested by centrifugation and resuspended with OPTI-MEM I medium (1 mL/cuvette). To each well in 96-wells plate, 125 μL of this cell suspension was added. After overnight culture at 37° C. under 5% CO2, 125 μL of DMEM medium which is containing 10% of fetal bovine serum (Sanko Jyunyaku), […] sodium penicillin G (Gibco-BRL: LIFE TECHNOLOGIES), 100 μg/mL streptomycin sulfate (Gibco-BRL: LIFE TECHNOLOGIES) was added to each well. These cells were cultured until the next day and then they were used for the measurement of the inhibitory activity against the uptake of methyl-α-D-glucopyranoside.
3) Measurement of the Inhibitory Activity Against the Uptake of methyl-α-D-glucopyranoside
After a test compounds was dissolved in dimethyl sulfoxide and diluted with the uptake buffer (a pH 7.4 buffer containing 140 mM sodium chloride, 2 mM potassium chloride, 1 mM calcium chloride, 1 mM magnesium chloride, 5 mM methyl-α-D-glucopyranoside, 10 mM 2-[4-(2-hydroxyethyl)-1-piperazinyl]ethane sulfonic acid and 5 mM tris(hydroxymethyl)aminomethane), each diluent was used as test sample for measurement of the inhibitory activity. […]
`Cc1ccc(Cc2c(O[C@@H]3O[C@H](CO)[C@@H](O)[C@H](O)[C@H]3O)n[nH]c2C)cc1` [Reference Example 57, 3-(β-D-Glucopyranosyloxy)-5-methyl-4-[(4-methylphenyl)-methyl]-1H-pyrazole] registered an IC50 of 280 nM.

`CCCOc1ccc(Cc2c(O[C@@H]3O[C@H](CO)[C@@H](O)[C@H](O)[C@H]3O)n[nH]c2C)cc1` [Reference Example 40, 3-(β-D-Glucopyranosyloxy)-5-methyl-4-[(4-propoxyphenyl)-methyl]-1H-pyrazole]: the IC50 stood at 702 nM.

`CSc1ccc(Cc2c(O[C@@H]3O[C@H](CO)[C@@H](O)[C@H](O)[C@H]3O)nn(C)c2C(F)(F)F)cc1` [Reference Example 54, 3-(β-D-Glucopyranosyloxy)-1-methyl-4-[(4-methylthiophenyl)-methyl]-5-trifluoromethylpyrazole] registered an IC50 of 835 nM.

As for `CSc1ccc(Cc2c(O[C@@H]3O[C@H](CO)[C@@H](O)[C@H](O)[C@H]3O)n[nH]c2C)cc1` [Reference Example 45, 3-(β-D-Glucopyranosyloxy)-5-methyl-4-[(4-methylthiophenyl)-methyl]-1H-pyrazole], the IC50 amounted to 84 nM.

As for `CCc1[nH]nc(O[C@@H]2O[C@H](CO)[C@@H](O)[C@H](O)[C@H]2O)c1Cc1ccc(SC)cc1` [Reference Example 46, 5-Ethyl-3-(β-D-glucopyranosyloxy)-4-[(4-methylthiophenyl)-methyl]-1H-pyrazole], the IC50 stood at 509 nM.

The molecule `COc1ccc(Cc2c(O[C@@H]3O[C@H](CO)[C@@H](O)[C@H](O)[C@H]3O)n[nH]c2C(F)(F)F)cc1` [Reference Example 50, 3-(β-D-Glucopyranosyloxy)-4-[(4-methoxyphenyl)methyl]-5-trifluoromethyl-1H-pyrazole] displayed an IC50 of 415 nM.

`CCc1ccc(Cc2c(O[C@@H]3O[C@H](CO)[C@@H](O)[C@H](O)[C@H]3O)n[nH]c2C(F)(F)F)cc1` [Reference Example 60, 4-[(4-Ethylphenyl)methyl]-3-(β-D-glucopyranosyloxy)-5-trifluoromethyl-1H-pyrazole] had an IC50 of 634 nM.

With `CCCc1ccc(Cc2c(O[C@@H]3O[C@H](CO)[C@@H](O)[C@H](O)[C@H]3O)n[nH]c2C)cc1` [Reference Example 38, 3-(β-D-Glucopyranosyloxy)-5-methyl-4-[(4-propylphenyl)-methyl]-1H-pyrazole], it took 441 nM to reach half-maximal inhibition (IC50).

As to `CCc1ccc(Cc2c(O[C@@H]3O[C@H](CO)[C@@H](O)[C@H](O)[C@H]3O)n[nH]c2C)cc1` [Reference Example 58, 4-[(4-Ethylphenyl)methyl]-3-(β-D-glucopyranosyloxy)-5-methyl-1H-pyrazole], the IC50 came out at 190 nM.

The molecule `COc1ccc(Cc2c(O[C@@H]3O[C@H](CO)[C@@H](O)[C@H](O)[C@H]3O)n[nH]c2C)cc1` [Reference Example 51, 3-(β-D-Glucopyranosyloxy)-4-[(4-methoxyphenyl)methyl]-5-methyl-1H-pyrazole] showed an IC50 of 383 nM.

Molecule `CCOc1ccc(Cc2c(O[C@@H]3O[C@H](CO)[C@@H](O)[C@H](O)[C@H]3O)n[nH]c2C)cc1` [Reference Example 41, 4-[(4-Ethoxyphenyl)methyl]-3-(β-D-glucopyranosyloxy)-5-methyl-1H-pyrazole] had an IC50 of 185 nM. This IC50 lies about 2.1-fold lower than the previous one.

In the case of `CSc1ccc(Cc2c(O[C@@H]3O[C@H](CO)[C@@H](O)[C@H](O)[C@H]3O)n[nH]c2C(F)(F)F)cc1` [Reference Example 48, 3-(β-D-Glucopyranosyloxy)-4-[(4-methylthiophenyl)methyl]-5-trifluoromethyl-1H-pyrazole], half-maximal inhibition (IC50) required 679 nM.

For the molecule `Cc1c(Cc2ccc(OC(C)C)cc2)c(O[C@@H]2O[C@H](CO)[C@@H](O)[C@H](O)[C@H]2O)nn1C(C)C` [Reference Example 72, 3-(β-D-Glucopyranosyloxy)-4-[(4-isopropoxyphenyl)methyl]-1-isopropyl-5-methylpyrazole], the IC50 was found to be 369 nM.

Molecule `Cc1[nH]nc(O[C@@H]2O[C@H](CO)[C@@H](O)[C@H](O)[C@H]2O)c1Cc1ccc(C(C)C)cc1` [Reference Example 47, 3-(β-D-Glucopyranosyloxy)-4-[(4-isopropylphenyl)methyl]-5-methyl-1H-pyrazole] displayed an IC50 of 441 nM.

In turn, `Cc1[nH]nc(O[C@@H]2O[C@H](CO)[C@@H](O)[C@H](O)[C@H]2O)c1Cc1ccc(OC(C)C)cc1` [Reference Example 37, 3-(β-D-Glucopyranosyloxy)-4-[(4-isopropoxyphenyl)methyl]-5-methyl-1H-pyrazole] yielded a half-maximal inhibitory concentration (IC50) of 181 nM.

(Values after patent publication US20060035847A1, “Glucopyranosyloxyprazole derivatives and use thereof in medicines” (KISSEI PHARMACEUTICAL CO., LTD., priority 2000, published 2006).)
